In patent US12090149B2, “SMAD3 inhibitors” (Moexa Pharmaceuticals Limited, priority 2018, dated 2024):

What was measured:
CYP2C9 = molecular target: T1, CYP2C9 (Homo sapiens, UniProt P11712); experiment: Cytochrome P450 inhibition assay, human liver microsomes, CYP2C9; format: in vitro ADME
T1 construct: CONSTRUCT DETAILS: Microsomes; from tissue; host or cells: human liver microsomes
Source text: • SUBSTRATE: Diclofenac

B16-F10 syngeneic model = experiment: Subcutaneous B16-F10 syngeneic model, tumor growth; format: in vivo, C57BL/6 mice; conditions: 30 mg/kg q.d. * 3W i.p.
[1] = Aqueous solubility assay (shake-flask, LC/MS/MS); format: physicochemical
[2] = tested on: TGFβ/Smad Signaling Pathway SBE Reporter—HEK293 Cell Line; experiment: TGFβ/Smad SBE reporter luciferase assay in HEK293 cells stimulated with human TGFβ1; format: cell-based; conditions: 4 h compound, then TGFβ1 20 ng/ml ~18 h
Protocol: • 1. TGFβ/Smad Signaling Pathway SBE Reporter—HEK293 Cell Line BPS Bioscience Catalog #: 60653 • 2. Human TGFβ1 (BPS Bioscience #90900-1) • 3. SIS3 (Sigma #S0447): inhibitor of TGFβ pathway. Prepare stock soln. in DMSO • 4. Growth medium: MEM medium (Invitrogen #11095-080)+10% FBS (ATCC #30-2020)+1% non-essential amino acids (Lonza #13-114E)+1 mM Na pyruvate (Lonza #13-115E)+1% Penicillin/Streptomycin (ATCC #30-2300)+400 μg/ml of Geneticin (Invitrogen #11811-031) • 5. Assay medium: MEM medium+0.5% FBS+1% non-essential amino acids+1 mM Na pyruvate+1% Pen/Strep • 6. 96-well tissue culture-treated white clear-bottom assay plate (Corning #3610) • 7. ONE-Step™ Luciferase Assay System (BPS, Cat. #60690)
SBE reporter-HEK293 cells were harvested from culture in growth medium and seeded at a density of ˜10,000 cells per well into a white clear-bottom 96-well microplate in 100 μl of assay medium. The plate containing cells was incubated at 37° C. in a CO2 incubator. 24 h after seeding, cells were washed with 100 μL of assay buffer and treated with three-fold serial dilution of compounds in 50 μl assay medium. […]
After 18 h of incubation, Luciferase assay was performed using ONE-Step™ Luciferase Assay System according to the protocol provided: 50 μl of ONE-Step™ Luciferase reagent was added per well and shook at room temperature for […]. Luminescence was measured using a luminometer.

CYP3A4 = CYP3A4 (Homo sapiens, UniProt P08684); experiment: Cytochrome P450 inhibition assay, human liver microsomes, CYP3A4; conditions: for inhibition at 10 µM: human
CYP3A4, sequence (P08684 whole entry): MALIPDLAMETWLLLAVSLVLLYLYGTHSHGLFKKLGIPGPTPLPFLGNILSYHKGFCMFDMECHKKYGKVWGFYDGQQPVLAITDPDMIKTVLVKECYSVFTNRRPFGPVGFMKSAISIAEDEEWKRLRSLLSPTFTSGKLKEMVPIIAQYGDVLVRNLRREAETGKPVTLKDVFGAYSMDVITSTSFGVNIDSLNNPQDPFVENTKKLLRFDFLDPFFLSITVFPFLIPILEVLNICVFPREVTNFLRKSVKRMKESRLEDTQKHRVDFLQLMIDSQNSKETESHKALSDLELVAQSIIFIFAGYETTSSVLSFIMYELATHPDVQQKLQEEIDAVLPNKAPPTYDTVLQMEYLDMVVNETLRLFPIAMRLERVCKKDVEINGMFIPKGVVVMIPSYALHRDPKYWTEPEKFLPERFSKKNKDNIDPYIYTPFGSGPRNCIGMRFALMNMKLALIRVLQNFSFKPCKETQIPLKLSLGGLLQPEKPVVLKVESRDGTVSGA

Solubility in DMSO = format: physicochemical
[3] = Day 13, calculated based on tumor volume of Day 8
[4] = Day 15, calculated based on tumor volume of Day 8
[5] = Day 18, calculated based on tumor volume of Day 8

T1 sequence (P11712 whole entry): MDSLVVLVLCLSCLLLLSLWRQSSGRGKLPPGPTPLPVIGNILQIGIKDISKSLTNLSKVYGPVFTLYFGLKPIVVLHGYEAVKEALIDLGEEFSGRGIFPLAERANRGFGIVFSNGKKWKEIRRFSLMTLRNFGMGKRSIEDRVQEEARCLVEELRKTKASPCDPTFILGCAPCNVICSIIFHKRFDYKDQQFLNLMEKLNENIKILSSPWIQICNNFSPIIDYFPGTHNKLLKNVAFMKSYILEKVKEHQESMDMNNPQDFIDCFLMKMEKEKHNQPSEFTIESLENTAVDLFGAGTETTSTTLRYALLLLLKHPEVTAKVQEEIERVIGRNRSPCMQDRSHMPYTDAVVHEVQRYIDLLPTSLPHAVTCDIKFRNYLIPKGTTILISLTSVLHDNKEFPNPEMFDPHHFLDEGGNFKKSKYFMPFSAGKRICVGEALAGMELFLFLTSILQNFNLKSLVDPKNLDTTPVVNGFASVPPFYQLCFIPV

Row | inhibition at 10 µM (CYP2C9; probe diclofenac, diclofenac substrate, read-out: CYP2C9 inhibition (HLM, diclofenac substrate) Inhibition (%)) | solubility at 24 h ([1]; aqueous buffer pH 10.63, aqueous buffer, thermodynamic from solid, pH 10.63 buffer, 25° C., 24 hours, SIS3 hydrochloride salt, MO-00005 free base, read-out: Conc. Of Sample (ug/mL), aqueous solubility) | aqueous solubility relative to the solubility of SIS3 ([1]; pH 10.63) | soluble in DMSO (Solubility in DMSO) | inhibition at 10 µM (CYP3A4; probe midazolam) | inhibition at 10 µM (CYP3A4; probe testosterone) | Structure (SMILES) | CYP2C9 inhibition (HLM, diclofenac substrate) Inhibition (%) (CYP2C9; 10 uM) | Tumor growth inhibition (%) TGI (B16-F10 syngeneic model; [3]) | Tumor growth inhibition (%) TGI (B16-F10 syngeneic model; [4]) | Tumor growth inhibition (%) TGI (B16-F10 syngeneic model; [5]) | Conc. Of Sample (ug/mL), aqueous solubility ([1]; pH 10.63 buffer, 25° C., 24 hours, SIS3 hydrochloride salt, MO-00005 free base) | IC50 [2] | CYP3A inhibition (HLM, midazolam substrate) Inhibition (%) (CYP3A4; 10 uM, midazolam substrate) | CYP3A inhibition (HLM, testosterone substrate) Inhibition (%) (CYP3A4; 10 uM, testosterone substrate) | IC50 ([2]; Homo sapiens)
1 |  |  |  |  |  |  | COc1cc2c(cc1OC)CN(C(=O)/C=C/c1c(-c3ccccc3)n(C)c3ncccc13)CC2.Cl [SIS3, reference compound] | 79.7661% | 39% | 27% | 25% | 2.4 µg/mL | 2.96 µM | 20.5499% | 9.294% | 
2 | 66.9% | 280 µg/mL | 117 times | soluble | 41.3% | 2.22% | COc1cc2c(cc1OC)CN(C(=O)/C=C/c1c(-c3ccccc3)nc3ccccn13)CC2 [Compound 8, (E)-1-(6,7-dimethoxy-3,4-dihydroisoquinolin-2(1H)-yl)-3-(2-phenylimidazo[1,2-a]pyridin-3-yl)prop-2-en-1-one] |  | 39% | 26% | 18% |  |  |  |  | 3.53 µM
